The values that follow come from ChEMBL document CHEMBL1697731, “Cheminformatics analysis of assertions mined from literature that describe drug-induced liver injury in different species” (Chem Res Toxicol, 2010).

Data set [1] relates to Hepatotoxicity. In words: Literature-mined compound from Fourches et al multi-species drug-induced liver injury (DILI) dataset, effect in rodents. The following applies: rodentia.
Data set [2] deals with Hepatotoxicity. The experiment in a line: Literature-mined compound from Fourches et al multi-species drug-induced liver injury (DILI) dataset, effect in non-rodents.
The subject of data set [3] is Hepatotoxicity. In words: Literature-mined compound from Fourches et al multi-species drug-induced liver injury (DILI) dataset, effect in humans. The following applies: human.

On to `CC1Cc2ccccc2N1NC(=O)c1ccc(Cl)c(S(N)(=O)=O)c1` (stereo unspecified) [INDAPAMIDE], for which the Hepatotoxicity result with Hepatotoxicity [1] is on record as “drug-induced liver injury reported”; in the data set with Hepatotoxicity [2] it was “no drug-induced liver injury reported”; in the data set on Hepatotoxicity [3], “no drug-induced liver injury reported”.
With `CC(C)NCC(O)COc1ccc(CC(N)=O)cc1` (stereo unspecified) [ATENOLOL], the Hepatotoxicity result is given as “no drug-induced liver injury reported” in the data set on Hepatotoxicity [1] (Liver), “no drug-induced liver injury reported” in the data set on Hepatotoxicity [2] (Liver) and “drug-induced liver injury reported” with Hepatotoxicity [3] (Liver).
`Cc1ccc(C(C)C)cc2c(C)ccc1-2` [GUAIAZULEN]: the Hepatotoxicity result with Hepatotoxicity [1] is “drug-induced liver injury reported”; in the data set on Hepatotoxicity [2] it was “no drug-induced liver injury reported”; with Hepatotoxicity [3], “no drug-induced liver injury reported”.
`CC(=O)NO` [ACETOHYDROXAMIC ACID]: the Hepatotoxicity result with Hepatotoxicity [1] is on record as “drug-induced liver injury reported”; with Hepatotoxicity [2], “no drug-induced liver injury reported”; in the data set with Hepatotoxicity [3], “no drug-induced liver injury reported”.
Consider `CC(=O)[C@H]1CC[C@H]2[C@@H]3CCC4=CC(=O)CC[C@]4(C)[C@H]3CC[C@]12C` (stereo in doubt; form 1) [PROGESTERONE], for which the Hepatotoxicity entry in the data set on Hepatotoxicity [1], in the data set on Hepatotoxicity [2] and in the data set with Hepatotoxicity [3] was “drug-induced liver injury reported” throughout.
Consider `Nc1nnc(-c2cccc(Cl)c2Cl)c(N)n1` [LAMOTRIGINE], for which the results for the Hepatotoxicity result in the data set with Hepatotoxicity [1], in the data set with Hepatotoxicity [2] and with Hepatotoxicity [3] were “no drug-induced liver injury reported”, “no drug-induced liver injury reported” and “drug-induced liver injury reported”, respectively.
As for `OC1(c2ccc(Cl)cc2)c2ccccc2C2=NCCN21` (stereo unspecified) [MAZINDOL], the Hepatotoxicity entry is listed as “drug-induced liver injury reported” in the data set on Hepatotoxicity [1], “no drug-induced liver injury reported” in the data set on Hepatotoxicity [2] and “no drug-induced liver injury reported” with Hepatotoxicity [3].
Consider `CCCc1nc(C(C)(C)O)c(C(=O)OCc2oc(=O)oc2C)n1Cc1ccc(-c2ccccc2-c2nnn[nH]2)cc1` [OLMESARTAN MEDOXOMIL], for which the Hepatotoxicity entry is reported as “drug-induced liver injury reported” with Hepatotoxicity [1], “no drug-induced liver injury reported” in the data set on Hepatotoxicity [2] and “no drug-induced liver injury reported” in the data set with Hepatotoxicity [3].
Regarding `C[C@H]1[C@H](NC(=O)/C(=N\OC(C)(C)C(=O)O)c2csc(N)n2)C(=O)N1S(=O)(=O)O` [AZTREONAM], the values for the Hepatotoxicity result with Hepatotoxicity [1], in the data set with Hepatotoxicity [2] and in the data set on Hepatotoxicity [3] were “no drug-induced liver injury reported”, “no drug-induced liver injury reported” and “drug-induced liver injury reported”, respectively.
For the molecule `Cc1ccc(-c2nc3ccc(C)cn3c2CC(=O)N(C)C)cc1` [ZOLPIDEM], the Hepatotoxicity result in the data set with Hepatotoxicity [1] was “no drug-induced liver injury reported”; with Hepatotoxicity [2], “no drug-induced liver injury reported”; in the data set on Hepatotoxicity [3] it was “drug-induced liver injury reported”.
`NCCCC[C@H](NC(=O)[C@@H]1CCCN1C(=O)[C@@H]1CSSC[C@H](N)C(=O)N[C@@H](Cc2ccccc2)C(=O)N[C@@H](Cc2ccccc2)C(=O)N[C@@H](CCC(N)=O)C(=O)N[C@@H](CC(N)=O)C(=O)N1)C(=O)NCC(N)=O` [FELYPRESSIN]: the Hepatotoxicity entry in the data set on Hepatotoxicity [1] is on record as “no drug-induced liver injury reported”; in the data set on Hepatotoxicity [2] it was “drug-induced liver injury reported”; with Hepatotoxicity [3], “no drug-induced liver injury reported”.
With `O=C(O)CCc1nc(-c2ccccc2)c(-c2ccccc2)o1` [OXAPROZIN], the Hepatotoxicity entry is recorded as “no drug-induced liver injury reported” in the data set with Hepatotoxicity [1], “no drug-induced liver injury reported” in the data set with Hepatotoxicity [2] and “drug-induced liver injury reported” in the data set on Hepatotoxicity [3].
For the molecule `CC(C)(C(=O)c1cccnc1)c1cccnc1` [METYRAPONE], the Hepatotoxicity entry is “drug-induced liver injury reported” with Hepatotoxicity [1] (Liver), “no drug-induced liver injury reported” in the data set on Hepatotoxicity [2] (Liver) and “drug-induced liver injury reported” in the data set on Hepatotoxicity [3] (Liver).
In the case of `COc1cc(NC(C)CCCN)c2ncccc2c1` (stereo unspecified) [PRIMAQUINE], the figures for the Hepatotoxicity result in the data set on Hepatotoxicity [1], in the data set on Hepatotoxicity [2] and with Hepatotoxicity [3] were “drug-induced liver injury reported”, “no drug-induced liver injury reported” and “drug-induced liver injury reported”, respectively.
On to `COc1ccc(/C=C/C(=O)Nc2ccccc2C(=O)O)cc1OC`, for which the Hepatotoxicity entry is recorded as “drug-induced liver injury reported” in the data set on Hepatotoxicity [1], “no drug-induced liver injury reported” in the data set with Hepatotoxicity [2] and “no drug-induced liver injury reported” with Hepatotoxicity [3].
In the case of `O=C(/C=C/c1ccc(O)c(O)c1)O[C@@H]1C[C@@](OC(=O)/C=C/c2ccc(O)c(O)c2)(C(=O)O)C[C@@H](O)[C@@H]1O` [CYNARIN], the Hepatotoxicity result with Hepatotoxicity [1] is “drug-induced liver injury reported”; in the data set on Hepatotoxicity [2] it was “no drug-induced liver injury reported”; with Hepatotoxicity [3] it was “no drug-induced liver injury reported”.
As to `CCCCCCC(=O)O[C@H]1CC[C@H]2[C@@H]3CCC4=CC(=O)CC[C@]4(C)[C@H]3CC[C@]12C` [TESTOSTERONE ENANTHATE], the Hepatotoxicity entry was “drug-induced liver injury reported” in the data set with Hepatotoxicity [1], “no drug-induced liver injury reported” with Hepatotoxicity [2] and “no drug-induced liver injury reported” in the data set with Hepatotoxicity [3].
As to `N[C@@H]1C[C@H]1c1ccccc1.N[C@H]1C[C@@H]1c1ccccc1` [TRANYLCYPROMINE], the Hepatotoxicity entry with Hepatotoxicity [1] (Liver), in the data set with Hepatotoxicity [2] (Liver) and in the data set with Hepatotoxicity [3] (Liver) was “drug-induced liver injury reported” throughout.
For `CCC(C)C(C)(COC(N)=O)COC(N)=O` (stereo unspecified) [MEBUTAMATE], the Hepatotoxicity entry is recorded as “drug-induced liver injury reported” with Hepatotoxicity [1], “no drug-induced liver injury reported” in the data set on Hepatotoxicity [2] and “no drug-induced liver injury reported” with Hepatotoxicity [3].
For the molecule `CC(=O)O[C@]1(C(C)=O)CC[C@H]2[C@@H]3C=C(Cl)C4=CC(=O)[C@@H]5C[C@@H]5[C@]4(C)[C@H]3CC[C@@]21C` [CYPROTERONE ACETATE], the Hepatotoxicity result with Hepatotoxicity [1] is given as “drug-induced liver injury reported”; with Hepatotoxicity [2], “no drug-induced liver injury reported”; in the data set on Hepatotoxicity [3], “drug-induced liver injury reported”.
For `CC(=O)OCC(=O)[C@@]1(O)CC[C@H]2[C@@H]3CCC4=CC(=O)CC[C@]4(C)[C@H]3C(=O)C[C@@]21C` [CORTISONE ACETATE], the Hepatotoxicity entry in the data set with Hepatotoxicity [1] is “drug-induced liver injury reported”; in the data set on Hepatotoxicity [2], “no drug-induced liver injury reported”; in the data set with Hepatotoxicity [3] it was “no drug-induced liver injury reported”.
Consider `O=C1CC2(CCCC2)CC(=O)N1CCCCN1CCN(c2ncccn2)CC1` [BUSPIRONE], for which the Hepatotoxicity entry with Hepatotoxicity [1] is “no drug-induced liver injury reported”; in the data set on Hepatotoxicity [2], “no drug-induced liver injury reported”; in the data set on Hepatotoxicity [3], “drug-induced liver injury reported”.
Consider `Cc1ccc(S(=O)(=O)NC(=O)NN2CC3CCCC3C2)cc1` (stereo unspecified) [GLICLAZIDE], for which the Hepatotoxicity entry in the data set with Hepatotoxicity [1] was “no drug-induced liver injury reported”; with Hepatotoxicity [2], “no drug-induced liver injury reported”; in the data set with Hepatotoxicity [3], “drug-induced liver injury reported”.
As to `OC[C@H]1OC(O)[C@H](O)[C@@H](O)[C@@H]1O` (stereo partly specified) [DEXTROSE], the Hepatotoxicity result with Hepatotoxicity [1], with Hepatotoxicity [2] and with Hepatotoxicity [3] was “drug-induced liver injury reported” each time.
With `CCC1(c2ccc(N)cc2)CCC(=O)NC1=O` (stereo unspecified) [AMINOGLUTETHIMIDE], the Hepatotoxicity result in the data set on Hepatotoxicity [1] is given as “drug-induced liver injury reported”; in the data set with Hepatotoxicity [2] it was “no drug-induced liver injury reported”; with Hepatotoxicity [3], “no drug-induced liver injury reported”.
For the molecule `Cc1cc(O)cc(C)c1Cl` [CHLOROXYLENOL], the Hepatotoxicity result was “drug-induced liver injury reported” in the data set with Hepatotoxicity [1], “no drug-induced liver injury reported” in the data set on Hepatotoxicity [2] and “no drug-induced liver injury reported” with Hepatotoxicity [3].
Regarding `O=C(O)CCCC[C@@H]1SC[C@@H]2NC(=O)N[C@@H]21` [BIOTIN], the Hepatotoxicity entry in the data set with Hepatotoxicity [1] is reported as “no drug-induced liver injury reported”; with Hepatotoxicity [2], “no drug-induced liver injury reported”; with Hepatotoxicity [3] it was “drug-induced liver injury reported”.
For the molecule `Cc1ccc(=O)n(-c2ccccc2)c1` [PIRFENIDONE], the Hepatotoxicity result was “drug-induced liver injury reported” in the data set with Hepatotoxicity [1], “drug-induced liver injury reported” in the data set on Hepatotoxicity [2] and “no drug-induced liver injury reported” in the data set on Hepatotoxicity [3].
For the molecule `CC(C)C(Br)C(=O)NC(N)=O` (stereo unspecified) [BROMISOVALUM], the figures for the Hepatotoxicity entry in the data set with Hepatotoxicity [1], in the data set with Hepatotoxicity [2] and in the data set on Hepatotoxicity [3] were “drug-induced liver injury reported”, “no drug-induced liver injury reported” and “drug-induced liver injury reported”, respectively.
With `COC1=C(OC)C(=O)C(CCCCCCCCCCO)=C(C)C1=O` [IDEBENONE], the Hepatotoxicity entry is “drug-induced liver injury reported” in the data set with Hepatotoxicity [1], “no drug-induced liver injury reported” in the data set with Hepatotoxicity [2] and “no drug-induced liver injury reported” with Hepatotoxicity [3].
In the case of `CN/C(=N/CCSCc1nc[nH]c1C)NC#N` [CIMETIDINE], the Hepatotoxicity entry in the data set on Hepatotoxicity [1] (Liver), with Hepatotoxicity [2] (Liver) and in the data set on Hepatotoxicity [3] (Liver) was “drug-induced liver injury reported” each time.
With `CCC[C@H](NC(=O)[C@@H]1[C@H]2CCC[C@H]2CN1C(=O)[C@@H](NC(=O)[C@@H](NC(=O)c1cnccn1)C1CCCCC1)C(C)(C)C)C(=O)C(=O)NC1CC1`, the Hepatotoxicity result in the data set with Hepatotoxicity [1] is reported as “no drug-induced liver injury reported”; in the data set on Hepatotoxicity [2], “no drug-induced liver injury reported”; in the data set on Hepatotoxicity [3], “drug-induced liver injury reported”.
